Measured values: ChEMBL document CHEMBL3813697, “Design, synthesis, and anticancer activity of C8-substituted-4'-thionucleosides as potential HSP90 inhibitors” (Bioorg Med Chem, 2016)
Active and inactive are the calls of the source. The calls are words filed in the database; no cut-off is given here.

How the values were obtained:
[1] = target: Heat shock protein HSP90 (Homo sapiens) (UniProt P07900+P08238); assay: Competitive inhibition of recombinant HSP90 (unknown origin) at 100 uM measured after 3 hrs using FITC-labeled geldanamycin by fluorescence polarization assay
[2] = Anticancer activity against human Caki1 cells measured after 72 hrs by SRB assay; assay type: functional, cell-based; settings: CAKI-1, 72 h
[3] = Anticancer activity against human HCT116 cells measured after 72 hrs by SRB assay; assay type: functional, cell-based; settings: HCT-116, 72 h
MDA-MB-231 = assay: Anticancer activity against human MDA-MB-231 cells measured after 72 hrs by SRB assay; assay type: functional, cell-based; settings: MDA-MB-231, 72 h
[4] = Anticancer activity against human SNU638 cells measured after 72 hrs by SRB assay; assay type: functional, cell-based; settings: SNU-638, 72 h
A549 = assay: Anticancer activity against human A549 cells measured after 72 hrs by SRB assay; assay type: functional, cell-based; settings: A549, 72 h

inhibition [1]	Compound	further results
inactive	Nc1ncnc2c1nc(-c1ccco1)n2[C@@H]1SC[C@@H](O)[C@H]1O	
inactive	O[C@@H]1[C@H](O)CS[C@H]1n1c(-c2cccs2)nc2c(Cl)ncnc21	
inactive	CNc1nc2c(N)ncnc2n1[C@@H]1SC[C@@H](O)[C@H]1O	
inactive	Nc1ncnc2c1nc(-c1cccs1)n2[C@@H]1SC[C@@H](O)[C@H]1O	
inactive	[N-]=[N+]=Nc1nc2c(N)ncnc2n1[C@@H]1SC[C@@H](O)[C@H]1O	
inactive	Nc1ncnc2c1nc(N1CCCCC1)n2[C@@H]1SC[C@@H](O)[C@H]1O	
inactive	[N-]=[N+]=Nc1nc2c(N)ncnc2n1[C@@H]1S[C@H](CO)[C@@H](O)[C@H]1O	
11%	Nc1ncnc2c1nc(I)n2[C@@H]1SC[C@@H](O)[C@H]1O	
inactive	Nc1ncnc2c1nc(NCc1ccc3c(c1)OCO3)n2[C@@H]1SC[C@@H](O)[C@H]1O	IC50 [2]: > 100000 nM; IC50 [3]: > 100000 nM; IC50 (MDA-MB-231): > 100000 nM; IC50 [4]: > 100000 nM; IC50 (A549): > 100000 nM
inactive	O[C@@H]1[C@H](O)CS[C@H]1n1c(-c2ccco2)nc2c(Cl)ncnc21	
inactive	Nc1ncnc2c1nc(NCc1ccccc1)n2[C@@H]1SC[C@@H](O)[C@H]1O	
inactive	CCCNc1nc2c(N)ncnc2n1[C@@H]1SC[C@@H](O)[C@H]1O	
inactive	[N-]=[N+]=Nc1nc2c(Cl)ncnc2n1[C@@H]1SC[C@@H](O)[C@H]1O	

Second part, the compound before the results:

Compound	inhibition [1]	further results
CNc1nc2c(N)ncnc2n1[C@@H]1S[C@H](CO)[C@@H](O)[C@H]1O	inactive	
CNc1ncnc2c1nc(-c1ccco1)n2[C@@H]1SC[C@@H](O)[C@H]1O	inactive	
Nc1ncnc2c1nc(-c1ccco1)n2[C@@H]1S[C@H](CO)[C@@H](O)[C@H]1O	inactive	
Nc1ncnc2c1nc(-c1ccccc1)n2[C@@H]1S[C@H](CO)[C@@H](O)[C@H]1O	inactive	
Nc1ncnc2c1nc(-c1cccs1)n2[C@@H]1S[C@H](CO)[C@@H](O)[C@H]1O	inactive	
COC1=C2C[C@@H](C)C[C@H](OC)[C@H](O)[C@@H](C)/C=C(\C)[C@H](OC(N)=O)[C@@H](OC)/C=C\C=C(/C)C(=O)NC(=CC1=O)C2=O [GELDANAMYCIN]		IC50 [2]: 56 nM; IC50 [3]: 150 nM; IC50 (MDA-MB-231): 110 nM; IC50 [4]: 30 nM; IC50 (A549): 109 nM
CCCNc1nc2c(N)ncnc2n1[C@@H]1S[C@H](CO)[C@@H](O)[C@H]1O	inactive	
Nc1ncnc2c1nc(N1CCCCC1)n2[C@@H]1S[C@H](CO)[C@@H](O)[C@H]1O	inactive	
CNc1ncnc2c1nc(-c1cccs1)n2[C@@H]1SC[C@@H](O)[C@H]1O	inactive	
